Laboratory results from patent publication US20050049240A1, “Tetrahydroisochinolines, their production and the use thereof as analgesics” (Bayer HealthCare AG, priority 2001, published 2005).

Biological target: T1, human neurotensin-2 (NT-2) receptor (Homo sapiens, UniProt O95665)
T1 construct: expressed in transfected cells
Experiment: NT2 antagonism assay (intracellular calcium release in CHO or HEK 293 cells recombinantly expressing the receptor)
Type: cell-based
Conditions: functional in vitro assay; block of agonist (e.g. SR48692)-dependent intracellular calcium release; recombinant human NT-2 receptor
Source text: The activation of the human neurotensin-2 (NT-2) receptor by an agonist, for example SR48692, 2-{[1-(7-chloroquinolin-4-yl)-5-(2,6-dimethoxyphenyl)pyrazol-3-yl]carbonylamino}tricyclo[3.3.3.1 ^3,7]decane-2-carboxylic acid, leads, via stimulation of phospholipase C, to the release of calcium ions from intracellular stores. Antagonists block the activation of the receptor by the agonist and therefore also the agonist-dependent stimulation of phospholipase C and the intracellular calcium release initiated thereby.
A functional in vitro assay may be carried out with stable cell lines, for example CHO or HEK 293, which express the human NT-2 receptor recombinantly. The activity of the receptor is determined via measurement of the intracellular calcium release coupled thereto (in microtiter plates having 96, 384 and 1536 wells/plate). The concentration-dependent action of the NT-2 ligands tested on the receptor activity may be reported as IC50.

T1 sequence (O95665 whole entry): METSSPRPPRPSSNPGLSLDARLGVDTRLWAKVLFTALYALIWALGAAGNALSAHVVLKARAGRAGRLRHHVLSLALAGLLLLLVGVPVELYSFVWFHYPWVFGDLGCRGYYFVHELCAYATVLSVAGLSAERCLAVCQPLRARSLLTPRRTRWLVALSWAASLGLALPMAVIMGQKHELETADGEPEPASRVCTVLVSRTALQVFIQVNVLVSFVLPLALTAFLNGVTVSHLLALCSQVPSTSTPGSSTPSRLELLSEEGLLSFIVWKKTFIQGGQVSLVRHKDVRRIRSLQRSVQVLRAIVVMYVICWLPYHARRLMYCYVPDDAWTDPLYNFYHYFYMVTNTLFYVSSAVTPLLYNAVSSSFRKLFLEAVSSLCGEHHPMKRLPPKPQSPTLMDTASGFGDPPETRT

For `NC(=O)COc1ccccc1C1C(C(=O)NCc2cccnc2)c2ccccc2C(=O)N1CCC1=CCCCC1` (single isomer, unassigned) [enantiomer B of example 1, 3,4-trans-3-[2-(2-Carbamoylmethoxy)phenyl]-2-[2-(1-cyclohexen-1-yl)ethyl]-1-oxo-N-(3-pyridinylmethyl)-1,2,3,4-tetrahydro-4-isoquinolinecarboxamide], the IC50 was less than 200 nM.
